Experimental data: ChEMBL document CHEMBL2417478, “Farnesides A and B, sesquiterpenoid nucleoside ethers from a marine-derived Streptomyces sp., strain CNT-372 from Fiji” (J Nat Prod, 2013)
pIC50: −log10 of the molar value. Active and inactive are the calls of the source. No cut-off for these calls is given here.

Key:
Staphylococcus aureus = assay: Antibacterial activity against methicillin-resistant Staphylococcus aureus; assay type: functional, organism-based
Influenza A virus = assay: Antiviral activity against influenza A virus by plaque inhibition assay; assay type: functional, organism-based
Plasmodium falciparum = assay: Antimalarial activity against Plasmodium falciparum 3D7 MRA-102, MR4/ATCC infected in human erythrocytes assessed as inhibition of parasite proliferation after 72 hrs by SYBR green assay; assay type: functional, organism-based
HCT-116 = assay: Cytotoxicity against human HCT116 cells; assay type: functional, cell-based

## CC(C)=CCC[C@@]1(C)O[C@@H]1CC/C(C)=C/COC[C@H]1O[C@@H](N2CCC(=O)NC2=O)[C@H](O)[C@@H]1O
Staphylococcus aureus
  Activity: inactive
Influenza A virus
  Activity: inactive
Plasmodium falciparum
  pIC50: 4.16
HCT-116
  Activity: inactive

## CC(C)=CCC[C@@](C)(O)[C@@H](O)CC/C(C)=C/COC[C@H]1O[C@@H](N2CCC(=O)NC2=O)[C@H](O)[C@@H]1O
Staphylococcus aureus
  Activity: inactive
Influenza A virus
  Activity: inactive
HCT-116
  Activity: inactive

## CC(C)=CCC/C(C)=C/COC[C@H]1O[C@@H](N2CCC(=O)NC2=O)[C@H](O)[C@@H]1O
Influenza A virus
  Activity: Active
